{"source": "patent US20050044578A1", "about": "“Rat highly sensitive to carcinogen” (priority 2001, published 2005)", "key": {"[1]": {"system": "transgenic rats", "assay": "Sensitivity to hepatocarcinogenesis by diethyl nitrosamine, GST-P-positive foci in liver, transgenic rats (mutant connexin 32)", "assay_type": "in vivo, rat", "settings": "200 mg/kg intraperitoneally", "protocol": "(§1) The livers taken from each of the above-mentioned rats were fixed with acetone and embedded in paraffine, sliced, and then GST-P, a precancerous hepatic lesion marker, was immunostained for visualization (FIG. 4, left). Further, the number and the area of positive foci per unit area in the GST-P-positive foci were measured with an image analyzer (IPAP, Olympus) (FIG. 4, right)."}, "[2]": {"system": "wild-type rats", "assay": "Sensitivity to hepatocarcinogenesis by diethyl nitrosamine, GST-P-positive foci in liver, wild-type rats", "assay_type": "in vivo, rat", "settings": "eight-week-old male, 200 mg/kg intraperitoneally, 20 weeks after the administration, per 1 cm^2", "protocol": "as §1"}, "[3]": {"settings": "transgenic rats, eight-week-old male, 20 weeks after the administration, liver, per 1 cm^2"}}, "data": [{"smiles": "CCN(CC)N=O", "note": "[diethyl nitrosamine]", "values": [{"measurement": "sensitivity of the transgenic rats to the hepatocarcinogen", "setting": "[1]; transgenic rats in comparison to wild-type rats, 20 weeks", "result": "extremely high sensitivity"}, {"measurement": "area of the GST-P-positive foci per unit area (1 cm^2)", "setting": "[1]; [3]", "result": 3.32, "unit": "mm^2"}, {"measurement": "number of the GST-P-positive foci per unit area (1 cm^2)", "setting": "[1]; [3]", "result": 79.8}, {"measurement": "area of the GST-P-positive foci per unit area (1 cm^2)", "setting": "[2]", "result": 0.2, "unit": "mm^2"}, {"measurement": "number of the GST-P-positive foci per unit area (1 cm^2)", "setting": "[2]", "result": 11.1}]}]}
